Results published in PubChem BioAssay (NCI).
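At the GI50, growth is halved. TGI: concentration producing complete growth inhibition.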

What was measured:
Assay in all cases: inhibition of tumour cell growth, NCI panel, 384-well format
HT29 colon = tested on: HT29 colon
MDA-MB-435 melanoma = tested on: MDA-MB-435 melanoma
RXF 393 renal = tested on: RXF 393 renal
HCC-2998 colon = tested on: HCC-2998 colon
SN12C renal = tested on: SN12C renal
LOX IMVI melanoma = tested on: LOX IMVI melanoma
OVCAR-5 ovarian = tested on: OVCAR-5 ovarian
MCF7 breast = tested on: MCF7 breast
BT-549 breast = tested on: BT-549 breast
PC-3 prostate = tested on: PC-3 prostate
NCI-H322M lung = tested on: NCI-H322M lung
SW-620 colon = tested on: SW-620 colon
HCT-15 colon = tested on: HCT-15 colon
CCRF-CEM leukemia = tested on: CCRF-CEM leukemia
SK-OV-3 ovarian = tested on: SK-OV-3 ovarian
EKVX NSCLC = tested on: EKVX NSCLC
CAKI-1 renal = tested on: CAKI-1 renal
M14 melanoma = tested on: M14 melanoma
786-0 renal = tested on: 786-0 renal
SF-539 CNS = tested on: SF-539 CNS
MDA-MB-231 breast = tested on: MDA-MB-231 breast
SF-295 CNS = tested on: SF-295 CNS
NCI-H226 lung = tested on: NCI-H226 lung
SK-MEL-28 melanoma = tested on: SK-MEL-28 melanoma
MALME-3M melanoma = tested on: MALME-3M melanoma
HL-60(TB) leukemia = tested on: HL-60(TB) leukemia
HOP-92 NSCLC = tested on: HOP-92 NSCLC
UO-31 renal = tested on: UO-31 renal
NCI-H460 NSCLC = tested on: NCI-H460 NSCLC
SR leukemia = tested on: SR leukemia
DU-145 prostate = tested on: DU-145 prostate
TK-10 renal = tested on: TK-10 renal
IGROV1 ovarian = tested on: IGROV1 ovarian
A549 NSCLC = tested on: A549 NSCLC
HCT-116 colon = tested on: HCT-116 colon
A498 renal = tested on: A498 renal
HS 578T breast = tested on: HS 578T breast
SK-MEL-5 melanoma = tested on: SK-MEL-5 melanoma
MOLT-4 leukemia = tested on: MOLT-4 leukemia
KM12 colon = tested on: KM12 colon
UACC-62 melanoma = tested on: UACC-62 melanoma
OVCAR-4 ovarian = tested on: OVCAR-4 ovarian
UACC-257 melanoma = tested on: UACC-257 melanoma
MDA-MB-468 breast = tested on: MDA-MB-468 breast
ACHN renal = tested on: ACHN renal
HOP-62 NSCLC = tested on: HOP-62 NSCLC
RPMI-8226 leukemia = tested on: RPMI-8226 leukemia
OVCAR-8 ovarian = tested on: OVCAR-8 ovarian
NCI-H23 lung = tested on: NCI-H23 lung
SF-268 CNS = tested on: SF-268 CNS
K-562 leukemia = tested on: K-562 leukemia
SNB-19 CNS = tested on: SNB-19 CNS
T-47D breast = tested on: T-47D breast
SK-MEL-2 melanoma = tested on: SK-MEL-2 melanoma
U251 glioblastoma = tested on: U251 glioblastoma
NCI/ADR-RES ovarian = tested on: NCI/ADR-RES ovarian
OVCAR-3 ovarian = tested on: OVCAR-3 ovarian
NCI-H522 lung = tested on: NCI-H522 lung
SNB-75 CNS = tested on: SNB-75 CNS

## Nc1nc(Cl)nc2c1ncn2C1OC(CO)C(O)C1F (stereo unspecified)
HT29 colon
  GI50: 510 nM
  TGI: > 100000 nM
MDA-MB-435 melanoma
  GI50: 261 nM
  TGI: > 100000 nM
RXF 393 renal
  GI50: 7360 nM
  TGI: > 100000 nM
HCC-2998 colon
  GI50: 34.6 nM
  TGI: > 100000 nM
SN12C renal
  GI50: 56.1 nM
  TGI: 401 nM
LOX IMVI melanoma
  GI50: 306 nM
  TGI: 880 nM
OVCAR-5 ovarian
  GI50: 515 nM
  TGI: > 100000 nM
MCF7 breast
  GI50: 200 nM
  TGI: > 100000 nM
BT-549 breast
  GI50: 77.4 nM
  TGI: 483 nM
PC-3 prostate
  GI50: > 20900 nM
  TGI: > 100000 nM
NCI-H322M lung
  GI50: 1850 nM
  TGI: > 100000 nM
SW-620 colon
  GI50: 401 nM
  TGI: > 100000 nM
HCT-15 colon
  GI50: 202 nM
  TGI: > 100000 nM
CCRF-CEM leukemia
  GI50: 15.7 nM
  TGI: 29.7 nM
SK-OV-3 ovarian
  GI50: 315 nM
  TGI: > 100000 nM
EKVX NSCLC
  GI50: 914 nM
CAKI-1 renal
  GI50: 91.5 nM
M14 melanoma
  GI50: 74.8 nM
  TGI: 290 nM
786-0 renal
  GI50: 97.5 nM
SF-539 CNS
  GI50: 612 nM
  TGI: 1820 nM
MDA-MB-231 breast
  GI50: 346 nM
  TGI: > 100000 nM
SF-295 CNS
  GI50: 724 nM
  TGI: 1610 nM
NCI-H226 lung
  GI50: 775 nM
  TGI: 3580 nM
SK-MEL-28 melanoma
  GI50: 106 nM
  TGI: > 100000 nM
MALME-3M melanoma
  GI50: 375 nM
  TGI: > 100000 nM
HL-60(TB) leukemia
  GI50: 20.5 nM
  TGI: 36.8 nM
HOP-92 NSCLC
  GI50: 301 nM
  TGI: > 100000 nM
UO-31 renal
  GI50: 234 nM
NCI-H460 NSCLC
  GI50: 177 nM
  TGI: 376 nM
SR leukemia
  GI50: 212 nM
  TGI: 380 nM
DU-145 prostate
  GI50: 277 nM
TK-10 renal
  GI50: 532 nM
  TGI: > 100000 nM
IGROV1 ovarian
  GI50: 419 nM
  TGI: > 100000 nM
A549 NSCLC
  GI50: 176 nM
  TGI: > 100000 nM
HCT-116 colon
  GI50: 57.6 nM
  TGI: > 100000 nM
A498 renal
  GI50: 324 nM
  TGI: > 23100 nM
HS 578T breast
  GI50: 430 nM
  TGI: > 22800 nM
SK-MEL-5 melanoma
  GI50: 61.6 nM
  TGI: 160 nM
MOLT-4 leukemia
  GI50: 14.8 nM
  TGI: 28.3 nM
KM12 colon
  GI50: 323 nM
  TGI: > 100000 nM
UACC-62 melanoma
  GI50: 208 nM
  TGI: 476 nM
OVCAR-4 ovarian
  GI50: > 100000 nM
  TGI: > 100000 nM
UACC-257 melanoma
  GI50: 412 nM
MDA-MB-468 breast
  GI50: 253 nM
  TGI: 699 nM
ACHN renal
  GI50: 122 nM
  TGI: 427 nM
HOP-62 NSCLC
  GI50: 41.9 nM
  TGI: 150 nM
RPMI-8226 leukemia
  GI50: 1730 nM
  TGI: 3780 nM
OVCAR-8 ovarian
  GI50: 31.5 nM
  TGI: > 100000 nM
NCI-H23 lung
  GI50: 37.7 nM
  TGI: 114 nM
SF-268 CNS
  GI50: 170 nM
  TGI: 692 nM
K-562 leukemia
  GI50: 80.4 nM
  TGI: > 100000 nM
SNB-19 CNS
  GI50: 72.6 nM
T-47D breast
  GI50: 2850 nM
  TGI: > 100000 nM
SK-MEL-2 melanoma
  GI50: 304 nM
  TGI: 697 nM
U251 glioblastoma
  GI50: 259 nM
  TGI: 2700 nM
NCI/ADR-RES ovarian
  GI50: 35.7 nM
  TGI: 1240 nM
OVCAR-3 ovarian
  GI50: 550 nM
  TGI: > 100000 nM
NCI-H522 lung
  GI50: 165 nM
  TGI: > 28900 nM
SNB-75 CNS
  GI50: 1260 nM
  TGI: 7990 nM
